From PMC7160673, “A Degenerate Peptide Library Approach to Reveal Sequence Determinants of Methyllysine-Driven Protein Interactions” (Frontiers in Cell and Developmental Biology, 2020)
Where no end group is shown, it is not given here. Peg = not defined here

Tests used:
Assay type in all cases: binding
CST 9733 (anti-H3K27me3) = assay: Histone peptide microarray, CST 9733; settings: histone peptide array signal normalized to the highest peptide average per subarray, hits; CST 9733 LOT:14 dilution 1:5,000
Protocol: (§1) Peptide microarrays were fabricated using an Aushon 2470 microarrayer and used as described ([Cornett et al., 2017]) with the following modifications. Protein and antibody hybridization steps were performed in buffer containing 25 mM HEPES pH 7.5, 100 mM NaCl, 0.5% BSA (w/v), and 0.1% NP-40. Slides were washed 3 × 5 min in PBS supplemented with 0.1% Tween-20 between each hybridization step. Antibodies used were primary anti-GST (Sigma #7781, 1:2,000 dilution) and an AlexaFluor 647-labeled secondary antibody (Life Technologies A-21245, 1:5,000 dilution). […] Full lists of peptides queried by array analysis are in Supplementary Table S2.

[1] = tested on: Abcam #ab8895, anti-H3K4me1; assay: Histone peptide microarray, Abcam ab8895; settings: Abcam ab8895 (anti-H3K4me1) hits, average signal per peptide
Protocol: as §1

[2] = tested on: Millipore #07-449, anti-H3K27me3; assay: Histone peptide microarray, Millipore 07-449; settings: Millipore 07-449 (anti-H3K27me3) hits, average signal per peptide
Protocol: as §1

[3] = tested on: Active Motif #39161, anti-H3K9me3; assay: Histone peptide microarray, Active Motif 39161; settings: Active Motif 39161 (anti-H3K9me3) hits
Protocol: as §1

53BP1 TTD = assay: Histone peptide microarray, 53BP1 TTD; settings: 53BP1 TTD hits, average signal per peptide
Protocol: as §1

Substance | Avg Signal (CST 9733 (anti-H3K27me3)) | Avg Signal [1] | Avg Signal [2] | Avg Signal [3] | Avg Signal (53BP1 TTD)
ARTKQTAR(Me)KSTGGKAPRKQL-Peg-Biot (chain 2 KSTGGKAPRKQL-{Peg-Biot}; not fully specified; reading uncertain) [Peptide H3.1R8me1] | 0.01735 | 0.1046 |  |  | 
Ac-SGRGK(But)GGK(But)GLGK(But)GGAKRHRKVLR-Peg-Biot [H4K5butK8butK12but] | 0.0001351 | 0.000718 | 0.01591 | 0.01514 | 
Ac-SGRGK(Ac)TGGKARAKAKSR-Peg-Biotin [Peptide H2A.XK5ac] | 0.0001351 |  |  |  | 
ARTK(Me3)QTARK(Ac)STGGKAPRK(Ac)QL-K(Biot)-NH2 [H3.1K4me3K9acK18ac] | 0.009868 |  | 0.05409 | 0.01916 | 0.0915
Ac-pSGCitGK(Ac)QGGKARAKAKTR-Peg-Biot [H2AS1pCit3K5ac] |  | 0.004421 | 0.006425 | 0.0032 | 0.04418
Ac-SGRGK(Me)GGK(Ac)GLGK(Ac)GGAK(Ac)RHRKVLR-Peg-Biot [H4K5me1K8acK12acK16ac] | 1.398e-6 | 0.01497 | 0.002528 | 0.0048 | 
KSAPSTGGVK(Me)KPHRYRPGT-G-K(Biot)-NH2 [Peptide H3.3K36me1] | 0.0007823 | 0.003496 | 0.009576 | 0.0005946 | 
ARTKQpTAR(Me2a)K(Me3)STGGKAPRKQL-K(Biot)-NH2 [H3.1T6pR8me2aK9me3] | 0.008944 |  | 0.006631 | 0.6906 | 
Ac-SGRGKGGKGLGK(Ac)GGAK(Ac)RHRKVLR-Peg-Biot [H4K12acK16ac H4(1-23)] | 3.927e-5 |  |  |  | 
Ac-SGRGKGGK(Ac)GLGKGGAKRHRKVLR-Peg-Biot [Peptide H4K8ac] |  | 0.01217 |  | 0.001167 | 0.08696
Ac-APRKQLATKAAR(Me2a)KSAPSTGG-Peg-Biot [Peptide H3.3R26me2a] | 0.0004634 |  | 0.001966 | 0.01154 | 
AR(Me2a)TK(Ac)QTARK(Ac)STGGK(Ac)APRK(Ac)QL-K(Biot)-NH2 [H3.1R2me2aK4acK9acK14acK18ac] |  | 0.0001948 |  | 0.00047 | 0.1712
Ac-GK(Ac)GGAK(Ac)RHRK(Me)VLRDNIQ-Peg-Biot [H4K12acK16acK20me1] | 0.0009983 |  | 0.001642 | 0.005445 | 
SGRGK(Ac)QGGK(Ac)ARAK(Ac)AK(Ac)TR-Peg-Biot [H2AK5acK9acK13acK15ac(noN-ac)] | 6.218e-5 |  |  |  | 0.2522
PEPAK(Me)SAPAPKKGSKKAVTKAQKK-Peg-Biot [Peptide H2BK5me1] |  | 0.004522 | 0.01581 | 0.004346 | 0.1012
Ac-SGRGKGGK(Ac)GLGKGGAK(Ac)RHRKVLR-Peg-Biot [Peptide H4K8acK16ac] |  | 0.002102 |  | 0.003751 | 0.2331
Ac-GK(Ac)GGAK(Ac)RHRKVLRDNIQ-Peg-Biot [H4K12acK16ac H4(11-27)] | 3.787e-5 |  |  |  | 
H3.1.1(15-34) H3.1(15-34): arrayed peptide ID 202 or 2551; same annotation and length | 0.0005485 |  |  |  | 
Ac-GKGGAKRHRK(Me)VLRDNIQ-Peg-Biot [Peptide H4K20me1] |  | 0.003452 |  | 7.157e-5 | 0.5244
ARTKQTARK(Ac)STGGKAPRKQL-K(Biot)-NH2 (not fully specified; K9 acetyl; K(Biot)-NH2) [Peptide H3.1K9ac] |  | 0.168 |  | 0.0003455 | 0.1022
ARTKQTARK(Ac)pSTGGKAPRKQL-K(Biot)-NH2 [Peptide H3.1K9acS10p] |  | 0.1852 |  |  | 0.0481
KSAPSTGGVK(Me3)KPHRYKPGT-G-K(Biot)-NH2 [yH3K36me3] | 0.0003217 |  |  |  | 0.1137
Ac-SAAKASQSRSAKAGLT-Peg-Biotin [yH2A(10-25)] | 6.218e-5 |  |  |  | 
Ac-GKGGAKRHRKVLRDNIQ-Peg-Biot [H4(11-27)] | 0.0004161 |  |  | 0.04504 | 0.128
ARTK(Ac)QTARKSTGGK(Ac)APRKQL-K(Biot)-NH2 [H3.1K4acK14ac] |  | 0.001132 |  | 0.0007938 | 0.2064
ARTK(Me3)QTARKSTGGKAPRKQL-K(Biot)-NH2 [H3.1K4me3 H3.1(1-20)] | 0.001817 |  |  |  | 

Substance | Avg Signal (CST 9733 (anti-H3K27me3)) | Avg Signal [1] | Avg Signal [2] | Avg Signal [3] | Avg Signal (53BP1 TTD)
Ac-SGRGKTGGKARAKAKSR-Peg-Biotin [H2A.X(1-17)] | 3.787e-5 |  |  | 0.0004918 | 
ARTKQTARK(Ac)STGGKAPRK(Ac)QL-K(Biot)-NH2 [H3.1K9acK18ac] |  | 0.2595 | 0.006063 | 0.0006444 | 0.0364
Ac-APRKQLATKAARK(Me3)pSAPSTGG-Peg-Biot [H3.3K27me3S28p] | 0.1559 |  | 0.1105 | 0.0007938 | 
KSAPSTGGVK(Me3)KPHRYRPGTV-K(biotin)-NH2 [H3.3K36me3 H3.3(27-46)] | 0.00263 |  |  |  | 
PRRRRRRGSSGAGGRGRTCS-Peg-Biot [Peptide H2A.B] | 0 |  |  |  | 
ARTKQTARK(Me2)pSTGGKAPRKQL-K(Biot)-NH2 [H3.1K9me2S10p] |  | 0.1568 |  |  | 0.3509
ATKAARKSAPATGGVK(Me3)KPHRYRPG-GK(Biotin)-OH [H3.1K36me3 H3.1(21-44)] | 0.0006093 |  |  |  | 
ARTKQTAR-NleSTGGKAPRKQL-Peg-Biot [Peptide H3.1K9-Nle] | 0.0002703 | 0.1441 | 0.001582 |  | 
ARTK(Ac)QTARK(Ac)STGGK(Ac)APRK(Ac)QL-K(Biot)-NH2 [H3.1K4acK9acK14acK18ac] | 0.0003418 |  |  | 0.05366 | 0.1399
Ac-SGR(Me2a)GK(Ac)QGGKARAKAKTR-Peg-Biot [H2AR3me2aK5ac] |  | 0.0107 |  | 0.03211 | 0.03444
ARTKQTARK(Me)pSTGGKAPRKQL-K(Biot)-NH2 [H3.1K9me1S10p] |  | 0.1234 |  |  | 0.1506
ARTKQpTARKSTGGKAPRKQL-K(Biot)-NH2 [Peptide H3.1T6p] |  | 0.0003583 |  | 0.0005946 | 0.07045
Ac-SGRGK(Ac)GGKGLGKGGAKRHRKVLR-Peg-Biot [Peptide H4K5ac] |  | 0.0009033 |  | 0.04019 | 0.009315
Ac-RRYQKSTELL-Peg-Biot [H3.1.1(52-61)] | 3.787e-5 |  | 0.0002743 | 0.0005198 | 
Ac-SGRGKGGKGLGK(Ac)GGAKRHRK(Ac)VLR-Peg-Biot [Peptide H4K12acK20ac] | 0.0004147 | 0.005228 | 0.007438 | 0.009155 | 
Ac-SGCitGK(Ac)QGGKARAKAKTR-Peg-Biot [Peptide H2ACit3K5ac] | 1.355e-5 |  |  |  | 0.009599
ARTKQTARKpSTGGKAPRKQL-K(Biot)-NH2 [Peptide H3.1S10p] |  | 0.06974 | 0.004546 |  | 0.0218
Ac-GK(Ac)GGAK(Ac)RHRK(Me2)VLRDNIQ-Peg-Biot [H4K12acK16acK20me2] | 0.0001487 |  |  |  | 
pSGRGK(Ac)QGGK(Ac)ARAK(Ac)AK(Ac)TR-Peg-Biot [H2AS1pK5acK9acK13acK15ac(noN-ac)] |  | 0.0006853 | 0.001023 |  | 0.06769
Ac-APRKQLATK(Ac)AARKSAPSTGG-Peg-Biot [Peptide H3.3K23ac] | 0.0001716 |  |  | 0.006441 | 
Ac-SGRGKGGK(Ac)GLGK(Ac)GGAKRHRKVLR-Peg-Biot [Peptide H4K8acK12ac] | 0.0001351 | 0.002906 | 0.006396 | 0.0006444 | 
ARTK(Me3)QTARKST-Peg-Biot [H3.1K4me3 H3.1(1-11)] | 1.495e-5 |  |  |  | 
PEPAK(Me2)SAPAPKKGSKKAVTKAQKK-Peg-Biot [Peptide H2BK5me2] | 0.0008674 |  |  |  | 0.1922
Ac-APRKQLATKAARK(Me)SAPSTGG--Peg-Biot [Peptide H3.3K27me1] |  | 0.01351 | 0.003394 |  | 0.1127
ARTKQTARKSTGGK(Ac)APRK(Ac)QL-K(Biot)-NH2 [H3.1K14acK18ac] |  | 0.1741 |  |  | 0.1587
Ac-APRKQLATKAARK(Ac)pSAPSTGG-Peg-K(Biot)-NH2 [H3.3K27acS28p] | 0.0002202 |  | 0.0005992 | 0.002338 | 
